Test results: publication PMC9784957 (Viruses, 2022)
Like-named read-outs stand apart in the source and are kept apart here.

Columns and labels:
HXB2 pseudotyped virus = assay: microbe, parasite or virus in culture; assay type: cell-based, HIV-1; conditions: for Increase in IC50 (loss of activity) when compound added 2 h after virus: HXB2 pseudotyped virus
[1] = test system: HIV-1 HXB2 Env pseudotyped virus; assay: Virus-cell fusion (infectivity) assay, HXB2 Env pseudotyped virus, TZM-bl cells; assay type: cell-based; conditions: for EC50 / EC90 / IC50: Human immunodeficiency virus 1, HXB2, TZM-bl; for EC50: read-out: Antiviral Activity EC50; for EC90: read-out: Antiviral Activity EC90; for IC50: read-out: IC50 HXB2
[2] = test system: gp41 hydrophobic pocket metallopeptide with Lys-574 replaced with norleucine; assay type: binding, HIV-1; conditions: Nle-574 receptor vs Lys-574 receptor
[3] = Resazurin cell viability assay run concomitantly with the fusion assays; assay type: cell-based; conditions: human, TZM-bl cells, approximated
[4] = test system: HXB2 Env mediated cell-cell fusion; design: method as in earlier work; conditions: cell-cell fusion assay; cited from earlier work
[5] = biological target: T1, gp41 hydrophobic pocket (FeII(env2.0)3) (Human immunodeficiency virus type 1 group M subtype B, UniProt P04578); assay: Fluorescence intensity binding affinity assay, displacement of C18FL from FeII; design: species or system HIV-1; conditions: for Increase in affinity for the HP of STP ester compared to acid, change in IC50: ester vs acid
T1 sequence (P04578 565-584): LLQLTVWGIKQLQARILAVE

[6] = test system: HXB2 Env mediated cell-cell fusion; assay: Cell-cell fusion assay, HL2/3 effector cells and TZM-bl target cells; assay type: cell-based, HIV-1; conditions: for Potency enhancement against cell-cell fusion upon STP esterification: ester vs acid; for IC50: Human immunodeficiency virus 1, HXB2, read-out: IC50 (CCF)
[7] = test system: HIV-1 HXB2 Env pseudotyped virus; design: method as in earlier work; conditions: virus-cell fusion assay using lab adapted strain HXB2; cited from earlier work
[8] = biological target: T1, gp41 hydrophobic pocket (FeII(env2.0)3); conditions: equilibrium binding to the HP; cited from earlier work
[9] = test system: Ampho-MLV Env pseudotyped virus; assay: Virus-cell fusion assay, Ampho-MLV Env pseudotyped virus; assay type: cell-based
[10] = test system: HIV-1 JRFL Env pseudotyped virus; assay: Virus-cell fusion assay, JRFL Env pseudotyped virus; assay type: cell-based
TZM-bl cells = assay: Resazurin cell viability assay run concomitantly with the fusion assays; assay type: cell-based; conditions: at 100 µM, Ampho-MLV Env experiment
Aqueous solubility = assay type: physicochemical
[11] = ester vs acid, pseudoviral infectivity
[12] = in antiviral assay, read-out: Antiviral Activity CC50
[13] = in cell-cell fusion assay, read-out: Inhibition of Cell-Cell Fusion CC50

Compound | Increase in IC50 (loss of activity) when compound added 2 h after virus (HXB2 pseudotyped virus) [fold] | EC50 [1] [µM] | EC90 [1] [µM] | Improvement of antiviral activity (EC50) by STP esterification [1, 11] | CC50 [3, 12] [µM] | CC50 [3, 13] [µM] | Increase in affinity for the HP of STP ester compared to acid, change in IC50 [5] | Ki [5] [µM] | further results
c1cc(CN2CCCNCCNCCCNCC2)ccc1CN1CCCNCCNCCCNCC1 [AMD3100, reference compound] | – | – | – | – | – | – | – | – | Residual efficacy when added 2 h after virus (HXB2 pseudotyped virus; at 50X EC50): 5%
COC(=O)c1cccc(Cn2ccc3ccc(-c4ccc5ccn(Cc6cccc(C(=O)Oc7c(F)c(F)c(S(=O)(=O)O)c(F)c7F)c6)c5c4)cc32)c1 [Compound 1-STP] | 14 | 0.3 ± 0.2 | 2.9 ± 1.6 | 10 fold | 20 ± 3 | > 10 | – | – | EC90 difference, STP ester compared to acid [1, 11]: 14 fold; Increase in KI on replacing Lys-574 with norleucine [2]: 6 fold
COC(=O)c1cccc(Cn2ccc3ccc(-c4ccc5ccn(Cc6cccc(C(=O)O)c6)c5c4)cc32)c1 [Compound 1] | 2 | 3.2 ± 1.6 | 17 ± 13 | greater than 10 fold | 22 ± 3 | > 10 | no change | – | IC50 [4]: 0.4 µM; Potency enhancement against cell-cell fusion upon STP esterification [6]: about 2 fold; IC50 [7]: 3 µM; Increase in KI on replacing Lys-574 with norleucine [2]: 5 fold; Ki [8]: 1 ± 0.5 µM
Cn1ncc2ccc(-c3ccc4cnn(Cc5ccc(F)c(C(=O)Oc6c(F)c(F)c(S(=O)(=O)O)c(F)c6F)c5)c4c3)cc21 [Compound 2-STP] | 14 | 5 ± 4 | 59 ± 22 | 7 fold | ≥ 100 | ≥ 200 | 3 fold | ~10 | Activity against Ampho-MLV Env pseudotyped particles [9]: artifact of the 40% cytotoxicity at 100 µM; Increase in IC50 on Nle-574 substitution [2]: 2.2 fold; Reduction in efficacy against JRFL Env compared to HXB2 Env [10]: 2 fold; Cytotoxicity (TZM-bl cells): 40%
Cn1ncc2ccc(-c3ccc4cnn(Cc5ccc(F)c(C(=O)O)c5)c4c3)cc21 [Compound 2] | 2 | 35 ± 7 | 800 ± 190 | 7 fold | ≥ 356 | ≥ 113 | 3 fold | 25 ± 5 | IC50 [1]: 35 µM; IC50 [6]: ≥ 50 µM; Potency enhancement against cell-cell fusion upon STP esterification [6]: 7 fold
CCOC(=O)c1cc(O)n(-c2ccc(C(=O)Oc3c(F)c(F)c(S(=O)(=O)O)c(F)c3F)cc2)n1 [Compound 3-STP] | – | 9 ± 2 | 44 ± 15 | > 10 fold | > 40 | > 40 | 10 fold | ~20 | activity at 40 µM (HXB2 pseudotyped virus; Human immunodeficiency virus 1, HXB2, 2 h, read-out: Residual activity when added after 2 h): 12%; Activity against Ampho-MLV Env pseudotyped particles [9]: no activity; Reduction in efficacy against JRFL Env compared to HXB2 Env [10]: 4 fold
CCOC(=O)c1cc(O)n(-c2ccc(C(=O)O)cc2)n1 [Compound 3] | – | > 100 | – | greater than 10 fold | > 100 | > 100 | 10 fold | 177 ± 12 | Aqueous solubility (Aqueous solubility): high aqueous solubility; IC50 [1]: > 100 µM; IC50 HXB2 ([1]; virus-cell fusion assay using lab adapted strain HXB2): No measurable antiviral potency; IC50 [6]: > 100 µM
Cc1ccnc2c1NC(=O)c1cccnc1N2C1CC1 [nevirapine, reference compound] | 2.7 | – | – | – | – | – | – | – | –
